Data published in PubChem BioAssay (NCI).
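GI50 is the concentration that inhibits growth by half. TGI: total growth inhibition.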

Key:
Experiment in all cases: NCI-60 cell line screen, 384-well format
OVCAR-3 ovarian = test system: OVCAR-3 ovarian
NCI-H460 NSCLC = test system: NCI-H460 NSCLC
MDA-MB-435 melanoma = test system: MDA-MB-435 melanoma
SF-268 CNS = test system: SF-268 CNS
SF-539 CNS = test system: SF-539 CNS
SN12C renal = test system: SN12C renal
LOX IMVI melanoma = test system: LOX IMVI melanoma
NCI-H522 lung = test system: NCI-H522 lung
HCT-15 colon = test system: HCT-15 colon
MCF7 breast = test system: MCF7 breast
UACC-257 melanoma = test system: UACC-257 melanoma
MALME-3M melanoma = test system: MALME-3M melanoma
COLO 205 colon = test system: COLO 205 colon
A498 renal = test system: A498 renal
OVCAR-8 ovarian = test system: OVCAR-8 ovarian
A549 NSCLC = test system: A549 NSCLC
HT29 colon = test system: HT29 colon
HS 578T breast = test system: HS 578T breast
EKVX NSCLC = test system: EKVX NSCLC
SNB-75 CNS = test system: SNB-75 CNS
BT-549 breast = test system: BT-549 breast
HCC-2998 colon = test system: HCC-2998 colon
T-47D breast = test system: T-47D breast
K-562 leukemia = test system: K-562 leukemia
ACHN renal = test system: ACHN renal
NCI-H226 lung = test system: NCI-H226 lung
MOLT-4 leukemia = test system: MOLT-4 leukemia
SK-MEL-28 melanoma = test system: SK-MEL-28 melanoma
U251 glioblastoma = test system: U251 glioblastoma
KM12 colon = test system: KM12 colon
MDA-MB-468 breast = test system: MDA-MB-468 breast
UACC-62 melanoma = test system: UACC-62 melanoma
SK-MEL-5 melanoma = test system: SK-MEL-5 melanoma
SK-OV-3 ovarian = test system: SK-OV-3 ovarian
IGROV1 ovarian = test system: IGROV1 ovarian
PC-3 prostate = test system: PC-3 prostate
CAKI-1 renal = test system: CAKI-1 renal
M14 melanoma = test system: M14 melanoma
NCI-H23 lung = test system: NCI-H23 lung
DU-145 prostate = test system: DU-145 prostate
HL-60(TB) leukemia = test system: HL-60(TB) leukemia
NCI-H322M lung = test system: NCI-H322M lung
HOP-92 NSCLC = test system: HOP-92 NSCLC
SW-620 colon = test system: SW-620 colon
CCRF-CEM leukemia = test system: CCRF-CEM leukemia
TK-10 renal = test system: TK-10 renal
RPMI-8226 leukemia = test system: RPMI-8226 leukemia
SR leukemia = test system: SR leukemia
HOP-62 NSCLC = test system: HOP-62 NSCLC
786-0 renal = test system: 786-0 renal
OVCAR-5 ovarian = test system: OVCAR-5 ovarian
NCI/ADR-RES ovarian = test system: NCI/ADR-RES ovarian
MDA-MB-231 breast = test system: MDA-MB-231 breast
SNB-19 CNS = test system: SNB-19 CNS
UO-31 renal = test system: UO-31 renal
SF-295 CNS = test system: SF-295 CNS
RXF 393 renal = test system: RXF 393 renal
OVCAR-4 ovarian = test system: OVCAR-4 ovarian

For COc1ccc(Br)cc1NC(=O)Nc1cccc2c1ccn2Cc1ccnc(N)c1, which GI50 (OVCAR-3 ovarian) is on record?
Its GI50 is 10 µM.

What about the TGI (OVCAR-3 ovarian) of the same compound?
The TGI was 21.7 µM.

What about the GI50 (NCI-H460 NSCLC) of the same compound?
The GI50 was 3.15 µM.

What about the TGI (NCI-H460 NSCLC) of the same compound?
The TGI was 9.4 µM.

And the GI50 (MDA-MB-435 melanoma)?
The GI50 was 10.9 µM.

And the TGI (MDA-MB-435 melanoma)?
Its TGI is 23 µM.

And the GI50 (SF-268 CNS)?
The GI50 was 9.97 µM.

What about the TGI (SF-268 CNS) of the same compound?
Its TGI is 21.9 µM.

What about the GI50 (SF-539 CNS) of the same compound?
The GI50 was 4.44 µM.

And the TGI (SF-539 CNS)?
Its TGI is 18 µM.

What about the GI50 (SN12C renal) of the same compound?
Its GI50 is 6.14 µM.

What about the TGI (SN12C renal) of the same compound?
Its TGI is 19.2 µM.

And the GI50 (LOX IMVI melanoma)?
Its GI50 is 4.85 µM.

And the TGI (LOX IMVI melanoma)?
The TGI was 15.2 µM.

What about the GI50 (NCI-H522 lung) of the same compound?
The GI50 was 3.51 µM.

What about the TGI (NCI-H522 lung) of the same compound?
Its TGI is 10.6 µM.

What about the GI50 (HCT-15 colon) of the same compound?
Its GI50 is 2.02 µM.

And the TGI (HCT-15 colon)?
Its TGI is 3.63 µM.

What about the GI50 (MCF7 breast) of the same compound?
Its GI50 is 5.26 µM.

And the TGI (MCF7 breast)?
The TGI was 18.3 µM.

What about the GI50 (UACC-257 melanoma) of the same compound?
Its GI50 is 4.42 µM.

And the TGI (UACC-257 melanoma)?
Its TGI is 14.2 µM.

What about the GI50 (MALME-3M melanoma) of the same compound?
The GI50 was 7.13 µM.

And the TGI (MALME-3M melanoma)?
Its TGI is 19.9 µM.

And the GI50 (COLO 205 colon)?
Its GI50 is 5.82 µM.

What about the TGI (COLO 205 colon) of the same compound?
Its TGI is 18.2 µM.

And the GI50 (A498 renal)?
The GI50 was 3.56 µM.

What about the TGI (A498 renal) of the same compound?
Its TGI is 13.5 µM.

What about the GI50 (OVCAR-8 ovarian) of the same compound?
The GI50 was 11.9 µM.

And the TGI (OVCAR-8 ovarian)?
The TGI was 24.5 µM.

What about the GI50 (A549 NSCLC) of the same compound?
The GI50 was 7.56 µM.

And the TGI (A549 NSCLC)?
The TGI was 20.2 µM.

And the GI50 (HT29 colon)?
Its GI50 is 2.01 µM.

And the TGI (HT29 colon)?
The TGI was 4.13 µM.

And the GI50 (HS 578T breast)?
Its GI50 is 6.06 µM.

And the TGI (HS 578T breast)?
The TGI was 17.8 µM.

And the GI50 (EKVX NSCLC)?
The GI50 was 8.67 µM.

And the TGI (EKVX NSCLC)?
Its TGI is 22 µM.

And the GI50 (SNB-75 CNS)?
Its GI50 is 14.1 µM.

And the TGI (SNB-75 CNS)?
The TGI was 29.7 µM.

And the GI50 (BT-549 breast)?
Its GI50 is 9.64 µM.

What about the TGI (BT-549 breast) of the same compound?
Its TGI is 21.5 µM.

And the GI50 (HCC-2998 colon)?
Its GI50 is 3.51 µM.

What about the TGI (HCC-2998 colon) of the same compound?
The TGI was 8.43 µM.

What about the GI50 (T-47D breast) of the same compound?
Its GI50 is 3.77 µM.

What about the TGI (T-47D breast) of the same compound?
Its TGI is 11.8 µM.

What about the GI50 (K-562 leukemia) of the same compound?
The GI50 was 1.47 µM.

And the TGI (K-562 leukemia)?
Its TGI is 2.81 µM.

What about the GI50 (ACHN renal) of the same compound?
Its GI50 is 7.08 µM.

And the TGI (ACHN renal)?
The TGI was 20.3 µM.

What about the GI50 (NCI-H226 lung) of the same compound?
Its GI50 is 5.77 µM.

And the TGI (NCI-H226 lung)?
Its TGI is 17.9 µM.

What about the GI50 (MOLT-4 leukemia) of the same compound?
Its GI50 is 1.56 µM.

And the TGI (MOLT-4 leukemia)?
The TGI was 3.55 µM.

And the GI50 (SK-MEL-28 melanoma)?
Its GI50 is 11.5 µM.

And the TGI (SK-MEL-28 melanoma)?
Its TGI is 23.7 µM.

What about the GI50 (U251 glioblastoma) of the same compound?
The GI50 was 6.92 µM.

What about the TGI (U251 glioblastoma) of the same compound?
The TGI was 19.5 µM.

What about the GI50 (KM12 colon) of the same compound?
The GI50 was 2.54 µM.

And the TGI (KM12 colon)?
The TGI was 5.81 µM.

And the GI50 (MDA-MB-468 breast)?
The GI50 was 2.81 µM.

What about the TGI (MDA-MB-468 breast) of the same compound?
The TGI was 5.07 µM.

And the GI50 (UACC-62 melanoma)?
The GI50 was 5.8 µM.

What about the TGI (UACC-62 melanoma) of the same compound?
Its TGI is 18.6 µM.

What about the GI50 (SK-MEL-5 melanoma) of the same compound?
Its GI50 is 4.55 µM.

What about the TGI (SK-MEL-5 melanoma) of the same compound?
Its TGI is 15.4 µM.

And the GI50 (SK-OV-3 ovarian)?
Its GI50 is 8.96 µM.

What about the TGI (SK-OV-3 ovarian) of the same compound?
The TGI was 21.1 µM.

What about the GI50 (IGROV1 ovarian) of the same compound?
The GI50 was 11.3 µM.

And the TGI (IGROV1 ovarian)?
Its TGI is 23.6 µM.

What about the GI50 (PC-3 prostate) of the same compound?
Its GI50 is 6.67 µM.

And the TGI (PC-3 prostate)?
Its TGI is 18.9 µM.

And the GI50 (CAKI-1 renal)?
The GI50 was 10.7 µM.

And the TGI (CAKI-1 renal)?
The TGI was 22.8 µM.

And the GI50 (M14 melanoma)?
Its GI50 is 6.29 µM.

And the TGI (M14 melanoma)?
Its TGI is 18.1 µM.

What about the GI50 (NCI-H23 lung) of the same compound?
The GI50 was 9.53 µM.

And the TGI (NCI-H23 lung)?
Its TGI is 21.6 µM.

What about the GI50 (DU-145 prostate) of the same compound?
The GI50 was 12.9 µM.

And the TGI (DU-145 prostate)?
The TGI was 27.9 µM.

What about the GI50 (HL-60(TB) leukemia) of the same compound?
The GI50 was 1.87 µM.

What about the TGI (HL-60(TB) leukemia) of the same compound?
Its TGI is 4.64 µM.

What about the GI50 (NCI-H322M lung) of the same compound?
Its GI50 is 8.46 µM.

What about the TGI (NCI-H322M lung) of the same compound?
The TGI was 21.4 µM.

What about the GI50 (HOP-92 NSCLC) of the same compound?
Its GI50 is 5.73 µM.

What about the TGI (HOP-92 NSCLC) of the same compound?
Its TGI is 18.3 µM.

What about the GI50 (SW-620 colon) of the same compound?
The GI50 was 12.4 µM.

And the TGI (SW-620 colon)?
Its TGI is 25 µM.

What about the GI50 (CCRF-CEM leukemia) of the same compound?
Its GI50 is 2.49 µM.

And the TGI (CCRF-CEM leukemia)?
The TGI was 5.33 µM.

And the GI50 (TK-10 renal)?
Its GI50 is 6.85 µM.

What about the TGI (TK-10 renal) of the same compound?
Its TGI is 20 µM.

What about the GI50 (RPMI-8226 leukemia) of the same compound?
Its GI50 is 2.35 µM.

What about the TGI (RPMI-8226 leukemia) of the same compound?
The TGI was 6.39 µM.

What about the GI50 (SR leukemia) of the same compound?
The GI50 was 1.75 µM.

What about the TGI (SR leukemia) of the same compound?
Its TGI is 3.72 µM.

And the GI50 (HOP-62 NSCLC)?
Its GI50 is 11.7 µM.

What about the TGI (HOP-62 NSCLC) of the same compound?
Its TGI is 24.1 µM.

And the GI50 ([…]-0 renal)?
The GI50 was 4.23 µM.

What about the TGI (786-0 renal) of the same compound?
The TGI was 16.6 µM.

And the GI50 (OVCAR-5 ovarian)?
Its GI50 is 11.8 µM.

What about the TGI (OVCAR-5 ovarian) of the same compound?
Its TGI is 24.6 µM.

What about the GI50 (NCI/ADR-RES ovarian) of the same compound?
The GI50 was 10.5 µM.

And the TGI (NCI/ADR-RES ovarian)?
The TGI was 23 µM.

What about the GI50 (MDA-MB-231 breast) of the same compound?
Its GI50 is 13.2 µM.

And the TGI (MDA-MB-231 breast)?
The TGI was 26.1 µM.

And the GI50 (SNB-19 CNS)?
Its GI50 is 9.24 µM.

What about the TGI (SNB-19 CNS) of the same compound?
The TGI was 21.7 µM.

And the GI50 (UO-31 renal)?
The GI50 was 12.2 µM.

And the TGI (UO-31 renal)?
Its TGI is 24.9 µM.

What about the GI50 (SF-295 CNS) of the same compound?
Its GI50 is 2.82 µM.

And the TGI (SF-295 CNS)?
The TGI was 8.47 µM.

And the GI50 (RXF 393 renal)?
Its GI50 is 6.56 µM.

And the TGI (RXF 393 renal)?
The TGI was 18.7 µM.

What about the GI50 (OVCAR-4 ovarian) of the same compound?
The GI50 was 3.72 µM.

What about the TGI (OVCAR-4 ovarian) of the same compound?
The TGI was 9.86 µM.
